According to patent US4875922A, “Pyrimidine derivatives” (Imperial Chemical Industries PLC, priority 1986, dated 1989):
Where two headings read alike, the source gives them in different places.

Key:
[1] = system: Rice; experiment: Whole plant screen for plant growth regulator activity, rice (RC); format: in vivo, Rice (Ishikari); conditions: 4000 ppm (4 kg/ha), visual score after 2-6 weeks; for T = Tillering or side shooting: * = decrease in tillering
Method: (§1) Compounds 1 to 3 in Table 1 were tested for plant growth regulator activity against five species for various growth effects relevant to plant growth regulation.
(§2) The plant species used in this screen are presented in Table II with the leaf stage at which they were sprayed. Each chemical was applied at 4000 ppm (4 kg/ha in a 1000 l/ha field volume) using a tracksprayer and a SS8004E (Teejet) nozzle.
(§3) After spray the plants were grown in a glasshouse with 25° C. day/22° C. night temperatures and supplementary lighting was supplied when necessary (from mercury vapour lamps), to provide a 16 hour photoperiod. The exception to this were the temperate cereals, wheat and barley which were grown in 16° C. day/13° C. night temperatures.
(§4) After 2-6 weeks in the glasshouse, depending on the time of year, the plants were visually assessed for morphological characteristics. Formulation blanks were used as controls to assess the plants.
(§5) Additional compounds in Table I were tested for plant growth regulator activity using the method of Example 60 except that Tomato was included in the test as an additional species. Tomato, Ailsa Craig, was grown in a single 3 inch pot in peat and treated at the 2 to 21/2 leaves growth stage. The results were presented in Table IV in which Tomato is indicated by the code TO and the Key is otherwise as for Table III.

[2] = system: Apple; experiment: Whole plant screen for plant growth regulator activity, apple (AP); format: in vivo, Apple (Red Delicious); conditions: 4000 ppm (4 kg/ha), visual score after 2-6 weeks
Method: as §1, §2, §3, §4, §5

[3] = system: Wheat; experiment: Whole plant screen for plant growth regulator activity, wheat (WW); format: in vivo, Wheat (Timmo); conditions: WW, 4000 ppm (4 kg/ha), visual score after 2-6 weeks; for T = Tillering or side shooting: * = decrease in tillering
Method: as §1, §2, §3, §4, §5

[4] = system: Rice; experiment: Intermediate Retardant Test, rice; format: in vivo, Rice (Ishikari); conditions: Oryza sativa, 672 h, read-out: Percentage Reduction in Height of Rice (Compared to formulation blank)
From the text: (§6) Three species are involved in this test RICE, SPRING-BARLEY and APPLES. The variety and growth stages at spray are outlined in Table V. Compounds were applied at 500 ppm and 2000 ppm respectively (0.5 kg and 2 kg/ha^-1 at a field volume of 1000 l/ha^-1) as an overall spray except in the case of certain tests on APPLES. This gives a foliar and root component in the test, i.e., this test will detect the activity of both root and foliar acting compounds. The intermediate retardant test on APPLES of which the results are given in Table IX was different, in that a foliar (only) spray at 2000 ppm was compared with a root drench, also at 2000 ppm. The rice was grown in 4" `paddy` pots, i.e., the roots and bottom of the stems are immersed in water under conditions corresponding to those in paddy fields. Spring barley and apples were grown in 4" pots. The plants were assessed for height to top-most ligule at approximately 28 days after treatment for spring barley and rice and for height to apex at approximately 28 days after the treatment for apples. In each case the result for the 500 ppm and 2000 ppm test for each compound is compared to the height of the formulation blank in that test, presented as a percentage reduction in height compared to the formulation blank.
(§7) The prior art compound was compared with compounds of the present invention in side-by-side comparisons using the Intermediate Retardant Test described in Example 62, and the results are given in Tables X to XII where `A` is the prior art compound, 2-methyl-1-isopropyl-1-(pyrimidin-5-yl)-propan-1-ol).

[5] = system: Spring Barley; experiment: Intermediate Retardant Test, spring barley; format: in vivo, Spring Barley (Atem/kym); conditions: Hordeum vulgare, 672 h, read-out: Percentage Reduction in Height of Spring Barley (Compared to formulation blank)
From the text: as §6, §7

[6] = system: Barley; experiment: Whole plant screen for plant growth regulator activity, barley (BR); format: in vivo, Barley (Atem); conditions: BR, 4000 ppm (4 kg/ha), visual score after 2-6 weeks; for T = Tillering or side shooting: * = decrease in tillering
Method: as §1, §2, §3, §4, §5

[7] = system: Apples; experiment: Intermediate Retardant Test, apples, foliar spray compared with root drench; format: in vivo, Apples (Red Delicious); conditions: 672 h, read-out: Percentage Reduction in Height of Apples (Compared to formulation blank); for percent reduction in plant height at 2000 µg/mL: soil, 2000 pmm (Root), root drench
From the text: as §6, §7

[8] = system: Tomato; experiment: Whole plant screen for plant growth regulator activity, tomato (TO); format: in vivo, Tomato (Ailsa Craig); conditions: 4000 ppm (4 kg/ha), visual score after 2-6 weeks
Method: as §2, §3, §4, §5
An astrisk (*) after a score under "T" (tillering) indicated a decrease in tillering.

[9] = overall spray, approximately 28 days, Table VI
[10] = overall spray, approximately 28 days, Table VII
[11] = 2000 ppm (Foliar), approximately 28 days, Table IX
[12] = approximately 28 days, Table IX
[13] = side-by-side comparison with prior art compound, Table X
[14] = side-by-side comparison with prior art compound, Table XI
[15] = 2000 ppm (Foliar), side-by-side comparison with prior art compound, Table XII
[16] = 2000 ppm (Root), side-by-side comparison with prior art compound, Table XII

Structure (SMILES): CC(C)C(O)(C#CC(C)(C)C)c1cncnc1 (stereo not shown) [Compound 10, 2-Methyl-1-(3,3-dimethylbut-1-yne)-1-(pyrmidin-5-yl)propan-1-ol]
- G = Greening effect [1]: 1 (10-30%)
- I = Interligular or internodal length reduction [1]: 2 (31-60%)
- R = Retardation [1]: 2 (31-60%)
- I = Interligular or internodal length reduction [2]: 3 (61-100%)
- R = Retardation [2]: 2 (31-60%)
- G = Greening effect [3]: 2 (31-60%)
- I = Interligular or internodal length reduction [3]: 3 (61-100%)
- R = Retardation [3]: 2 (31-60%)
- T = Tillering or side shooting [3]: 1 (10-30%)
- Percent reduction in rice height vs formulation blank at 500 ppm [4, 9]: 9%
- Percent reduction in rice height vs formulation blank at 2000 ppm [4, 9]: 20%
- percent reduction in plant height at 500 ppm [5, 10]: 29%
- percent reduction in plant height at 2000 ppm [5, 10]: 62%
- G = Greening effect [6]: 2 (31-60%)
- I = Interligular or internodal length reduction [6]: 3 (61-100%)
- R = Retardation [6]: 2 (31-60%)
- T = Tillering or side shooting [6]: 2 (31-60%)
- percent reduction in plant height at 2000 ppm [7, 11]: 4%
- percent reduction in plant height at 2000 µg/mL [7, 12]: 69%

Structure (SMILES): CC(C)C#CC(O)(c1cncnc1)C(C)(C)C (stereo not shown) [Compound 18, 2,2-Dimethyl-1-(3-methylbut-1-yne)-1-(pyrimdin-5-yl)-propan-1-ol]
- G = Greening effect [1]: 1 (10-30%)
- I = Interligular or internodal length reduction [1]: 3 (61-100%)
- R = Retardation [1]: 3 (61-100%)
- G = Greening effect [2]: 2 (31-60%)
- I = Interligular or internodal length reduction [2]: 3 (61-100%)
- R = Retardation [2]: 3 (61-100%)
- I = Interligular or internodal length reduction [3]: 3 (61-100%)
- R = Retardation [3]: 2 (31-60%)
- T = Tillering or side shooting [3]: 2 (31-60%)
- Percent reduction in rice height vs formulation blank at 500 ppm [4, 9]: 13%
- Percent reduction in rice height vs formulation blank at 2000 ppm [4, 9]: 15%
- percent reduction in plant height at 500 ppm [5, 10]: 17%
- percent reduction in plant height at 2000 ppm [5, 10]: 55%
- G = Greening effect [6]: 2 (31-60%)
- I = Interligular or internodal length reduction [6]: 3 (61-100%)
- R = Retardation [6]: 2 (31-60%)
- T = Tillering or side shooting [6]: 3 (61-100%)
- percent reduction in plant height at 2000 ppm [7, 11]: 0%
- percent reduction in plant height at 2000 µg/mL [7, 12]: 69%
- I = Interligular or internodal length reduction [8]: 3 (61-100%)
- R = Retardation [8]: 3 (61-100%)

Structure (SMILES): CC(C)CCC#CC(O)(c1cncnc1)C(C)C (stereo not shown) [Compound 12, 2-Methyl-1-(5-methylhex-1-yne)-1-(pyrimidin-5-yl)-propan-1-ol]
- G = Greening effect [1]: 1 (10-30%)
- I = Interligular or internodal length reduction [1]: 2 (31-60%)
- R = Retardation [1]: 2 (31-60%)
- T = Tillering or side shooting [1]: 1 (10-30%)
- G = Greening effect [2]: 1 (10-30%)
- I = Interligular or internodal length reduction [2]: 3 (61-100%)
- R = Retardation [2]: 2 (31-60%)
- G = Greening effect [3]: 1 (10-30%)
- I = Interligular or internodal length reduction [3]: 2 (31-60%)
- R = Retardation [3]: 2 (31-60%)
- T = Tillering or side shooting [3]: 1 (10-30%)
- Percent reduction in rice height vs formulation blank at 500 ppm [4, 9]: 5%
- Percent reduction in rice height vs formulation blank at 2000 ppm [4, 9]: 8%
- percent reduction in plant height at 500 ppm [5, 10]: 3%
- percent reduction in plant height at 2000 ppm [5, 10]: 19%
- G = Greening effect [6]: 2 (31-60%)
- I = Interligular or internodal length reduction [6]: 3 (61-100%)
- R = Retardation [6]: 2 (31-60%)
- T = Tillering or side shooting [6]: 3 (61-100%)
- percent reduction in plant height at 2000 ppm [7, 11]: 2%
- percent reduction in plant height at 2000 µg/mL [7, 12]: 58%
- G = Greening effect [8]: 1 (10-30%)

Structure (SMILES): CCC(C)C#CC(O)(c1cncnc1)C(C)C (stereo not shown) [Compound 5, 2-Methyl-1-(3-methylpent-1-yne)-1-(pyrimidin-5-yl)-propan-1-ol]
- I = Interligular or internodal length reduction [1]: 2 (31-60%)
- R = Retardation [1]: 2 (31-60%)
- T = Tillering or side shooting [1]: 1 (10-30%)
- G = Greening effect [3]: 2 (31-60%)
- I = Interligular or internodal length reduction [3]: 3 (61-100%)
- R = Retardation [3]: 3 (61-100%)
- T = Tillering or side shooting [3]: 1 (10-30%)
- Percent reduction in rice height vs formulation blank at 500 ppm [4, 9]: 39%
- Percent reduction in rice height vs formulation blank at 2000 ppm [4, 9]: 68%
- percent reduction in plant height at 500 ppm [5, 10]: 38%
- percent reduction in plant height at 2000 ppm [5, 10]: 72%
- G = Greening effect [6]: 1 (10-30%)
- I = Interligular or internodal length reduction [6]: 3 (61-100%)
- R = Retardation [6]: 3 (61-100%)
- T = Tillering or side shooting [6]: 3 (61-100%)
- percent reduction in plant height at 2000 ppm [7, 11]: 25.6%
- percent reduction in plant height at 2000 µg/mL [7, 12]: 76.1%
- G = Greening effect [8]: 2 (31-60%)
- I = Interligular or internodal length reduction [8]: 2 (31-60%)
- R = Retardation [8]: 2 (31-60%)

Structure (SMILES): CC(C)C(O)(c1cncnc1)C(C)C [A, 2-methyl-1-isopropyl-1-(pyrimidin-5-yl)-propan-1-ol, reference compound]
- Percent reduction in rice height vs formulation blank at 500 ppm [4, 13]: 2%
- Percent reduction in rice height vs formulation blank at 2000 ppm [4, 13]: 0%
- percent reduction in plant height at 500 ppm [5, 14]: 0%
- percent reduction in plant height at 2000 ppm [5, 14]: 0%
- percent reduction in plant height at 2000 ppm [7, 15]: 0%
- percent reduction in plant height at 2000 ppm [7, 16]: 23.5%

Structure (SMILES): CCC(C)CC#CC(O)(c1cncnc1)C(C)C (stereo not shown) [Compound 11, 2-Methyl-1-(4-methylhex-1-yne)-1-(pyrimidin-5-yl)propan-1-ol]
- Percent reduction in rice height vs formulation blank at 500 ppm [4, 9]: 4%
- Percent reduction in rice height vs formulation blank at 2000 ppm [4, 9]: 14%
- percent reduction in plant height at 500 ppm [5, 10]: 5%
- percent reduction in plant height at 2000 ppm [5, 10]: 47%
- percent reduction in plant height at 2000 ppm [7, 11]: 6%
- percent reduction in plant height at 2000 µg/mL [7, 12]: 55%

Structure (SMILES): CCCCCC(O)(c1cncnc1)C(C)(C)C (stereo not shown) [Compound 15, 2,2-Dimethyl-1-(pentyl)-1-(pyrimidin-5-yl)-propan-1-ol]
- G = Greening effect [3]: 1 (10-30%)
- I = Interligular or internodal length reduction [3]: 3 (61-100%)
- R = Retardation [3]: 2 (31-60%)
- T = Tillering or side shooting [3]: 1 (10-30%)
- Percent reduction in rice height vs formulation blank at 500 ppm [4, 9]: 13%
- Percent reduction in rice height vs formulation blank at 2000 ppm [4, 9]: 39%
- percent reduction in plant height at 500 ppm [5, 10]: 14%
- percent reduction in plant height at 2000 ppm [5, 10]: 33%
- I = Interligular or internodal length reduction [6]: 2 (31-60%)
- R = Retardation [6]: 2 (31-60%)
- percent reduction in plant height at 2000 ppm [7, 11]: 44.2%
- percent reduction in plant height at 2000 µg/mL [7, 12]: 71.1%
- G = Greening effect [8]: 2 (31-60%)
- I = Interligular or internodal length reduction [8]: 2 (31-60%)
- R = Retardation [8]: 2 (31-60%)

Structure (SMILES): CC(C)CC#CC(O)(c1cncnc1)C(C)C (stereo not shown) [Compound 4, 2-methyl-1-(4-methylpent-1-yne)-1-(pyrimidin-5-yl)-propan-1-ol]
- Percent reduction in rice height vs formulation blank at 500 ppm [4, 13]: 45%
- Percent reduction in rice height vs formulation blank at 2000 ppm [4, 13]: 66%
- percent reduction in plant height at 500 ppm [5, 14]: 53%
- percent reduction in plant height at 2000 ppm [5, 14]: 64%
- percent reduction in plant height at 2000 ppm [7, 15]: 46.8%
- percent reduction in plant height at 2000 ppm [7, 16]: 64.6%
